How the values were obtained:
[1] = tested on: HEK293FT cells; test: 19F NMR detection of conversion of 5FC to 5FU, HEK293FT cells; type: cell-based, Human; set-up: key: (−): no 5FU was detected; conditions: 24 hours, 10 mM 5FC
Experimental: (§1) For each cell type, the same number of transduced (CD) or non-transduced (wild type, WT) cells were plated into 6-well plates (5.6×10^6 HEK293FT cells, 10^6 9 L cells, and 1.4×10^6 C17.2 cells, respectively). Approximately 6 hours later, fresh culture medium containing 7 mM cytosine or 10 mM 5FC was added to the cells. Fifty microliters of the culture media were collected at different time points up to 24 hours for HEK293FT cells (i.e. 0.5, 4, 6, and 24 hours), and up to 48 hours for the other two cell lines (i.e., 0.5, 4, 6, 24, and 48 hours). These samples were then transferred into capillaries and measured for CEST signal at 2 ppm for cytosine and 2.4 ppm for 5FC.
Studies were performed using a 500 MHz Bruker NMR spectrometer. ^19F NMR spectra of the enzymatic mixture or aqueous solutions of 10 mM 5FC and 5FU standards (FIG. 30 a and b) were acquired using a single-pulse sequence with a flip angle of 90°, TR=5 sec, and NA=32, carried out at 25° C. with the spectra centered at the resonance frequency of 5FC. […] For the cell culture media incubated with 10 mM 5FC for 24 and 48 hours for all three cell types, the ^19F NMR spectrum was measured using the same protocol, except the number of averages was changed to 64 to improve SNR. 5FU peaks were only detected for HEK293FT cells after 24-hour and for 9L cells after 48 hours (FIG. 30 c,d). […]

[2] = tested on: HEK293FT; test: Cell proliferation assay, HEK293FT; type: cell-based, Human; conditions: CD-transduced HEK293FT, 10 mM 5FC, 40 hours
Experimental: (§2) Both wild type- and CD-transduced cells were plated in 96-well cell culture plates to reach a sufficient cell number before 5FC treatment. Then media were replaced with media containing 10 mM 5FC. After 40 hours of incubation, cell viability was determined using a […] assay kit (Invitrogen).

[3] = tested on: 9L cells; test: 19F NMR detection of conversion of 5FC to 5FU, 9L cells; type: cell-based, Rat; set-up: key: (−): no 5FU was detected; conditions: 10 mM 5FC
Experimental: as §1
(§3) Studies were performed using a 500 MHz Bruker NMR spectrometer. ^19F NMR spectra of the enzymatic mixture or aqueous solutions of 10 mM 5FC and 5FU standards (FIG. 30 a and b) were acquired using a single-pulse sequence with a flip angle of 90°, TR=5 sec, and NA=32, carried out at 25° C. with the spectra centered at the resonance frequency of 5FC. NMR data were processed and plotted using Topspin (Bruker, M A). For the cell culture media incubated with 10 mM 5FC for 24 and 48 hours for all three cell types, the ^19F NMR spectrum was measured using the same protocol, except the number of averages was changed to 64 to improve SNR. 5FU peaks were only detected for HEK293FT cells after 24-hour and for 9L cells after 48 hours (FIG. 30 c,d). The complete results of the conversion detected using F NMR are listed in Table 1, as quantified by a conversion rate=peak area(5FU)/(peak area(5FU)+peak area(5FC)).

[4] = tested on: 9L cells; test: CEST MRI of culture media, CDase activity in 9L cells; type: cell-based, Rat; conditions: CDase-expressing 9L cells, 48 h incubation
Excerpt: (§4) All MR images were acquired with a 9.4T Bruker Avance system equipped with a 15 mm sawtooth RF coil. A modified RARE sequence (TR=6.0 sec, effective TE=43.2 ms, RARE factor=16, slice thickness=0.7 mm, FOV=14×14 mm, matrix size=128×64, resolution=0.11×0.22 mm^2, and NA=2) including a magnetization transfer (MT) module (one CW pulse, B=[…] (150 Hz), 3 sec) was used to acquire CEST-weighted images from −6 ppm to 6 ppm (step=0.2 ppm) around the water resonance (0 ppm). The absolute water resonant frequency shift was measured using a Water Saturation Shift Reference (WASSR) (Kim, M. et al. Magnetic Resonance in Medicine 2009, 61, 1441) method modified (Liu, G. et al. Contrast Media Mol Imaging 2010, 5, 162) with Lorentzian analysis. […]
(§5) Data processing was performed using custom-written scripts in MATLAB (Mathworks, Waltham, Mass.). CEST spectra were calculated from the mean of an ROI placed over each sample after B0 correction of the contrast on a per voxel basis. The CEST signal was quantified using MTRasym at specific offsets of interest (i.e., &ω=+2 ppm for cytosine or +2.4 ppm for 5FC) using the definition: MTRasym=(S^−˜ω−S^+″ω)/S0, where and s[−˜ω, +Aω] is the water signal intensity in the presence of a saturation pulse at offsets ±Aω, and S0 is water signal intensity in the absence of a saturation pulse. […]

[5] = tested on: 9L; test: Cell proliferation assay, 9L; type: cell-based, Rat; conditions: CD-transduced 9L, 10 mM 5FC, 40 hours
Experimental: as §2

[6] = tested on: HEK293FT cells; test: CEST MRI of culture media, CDase activity in HEK293FT cells; type: cell-based, Human; conditions: HEK-293FT; 7 mM cytosine or 10 mM 5FC
Excerpt: as §4, §5

[7] = tested on: C17.2 cells; test: 19F NMR detection of conversion of 5FC to 5FU, C17.2 cells; type: cell-based, mouse; set-up: key: (−): no 5FU was detected; conditions: 10 mM 5FC
Experimental: as §1, §3

[8] = molecular target: T1, Escherichia coli CDase (CodA) (Escherichia coli, UniProt P25524); test: Deamination by crude recombinant CDase extracts measured using CEST MRI; type: biochemical; conditions: 20 mM substrate, crude CDase extract, 37° C.
T1 construct: 6xHis (C); made in house; host or cells: E. coli BL21 (DE3), crude protein extract
T1 sequence (P25524 whole entry): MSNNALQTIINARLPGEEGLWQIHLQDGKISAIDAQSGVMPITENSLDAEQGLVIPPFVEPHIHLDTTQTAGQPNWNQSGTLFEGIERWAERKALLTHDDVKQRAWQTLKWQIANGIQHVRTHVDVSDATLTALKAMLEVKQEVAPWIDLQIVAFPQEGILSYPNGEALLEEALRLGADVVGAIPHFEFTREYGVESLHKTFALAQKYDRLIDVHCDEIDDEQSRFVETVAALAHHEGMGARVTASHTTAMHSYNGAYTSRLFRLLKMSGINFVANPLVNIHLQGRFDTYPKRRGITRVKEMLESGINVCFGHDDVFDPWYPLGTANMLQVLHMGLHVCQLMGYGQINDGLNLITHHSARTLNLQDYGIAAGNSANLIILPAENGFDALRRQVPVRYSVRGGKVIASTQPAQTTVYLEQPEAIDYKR
Experimental: FIGS. 9A-9D show monitoring of recombinant CDase activity using CEST MRI. (FIG. 9A) Western blot using an anti-six-histidine-tag antibody of protein extracts from E. coli engineered to express CD or HSV1-tk (TK). (FIG. 9B) Deamination of cytosine and 5FC (20 mM) by crude CDase extracts measured using CEST MRI at 37° C. and 9.4 T. Conversion was quantified as (1−MTR^tasym/MTR^0asym)×100%, where MTR^tasym/MTR^0asym are the contrasts at time t, and at t=0, respectively. (FIG. 9C, D) maps and statistical analysis (two tailed unpaired students t-test; n=3) of 20 mM (FIG. 9C) cytosine and (FIG. 9D) 5 FC incubated with CDase (0.6 ug crude protein) for 24 hours.
The gene encoding the E. coli Cytosine Deaminase (CDase, CodA) was obtained from the American Type Culture Collection (ATCC Cat. 4099). […] Both genes were sub-cloned into the pEXP5-CT expression vector (Invitrogen) in a reading frame with a C-terminal six-histidine tag under a T7 promoter. […] The recombinant proteins were expressed after induction in Magic Media™ (Invitrogen), and both could be detected with Western blot using an anti-6-histidine tag antibody. […]
Data processing was performed using custom-written scripts in MATLAB (Mathworks, Waltham, Mass.). CEST spectra were calculated from the mean of an ROI placed over each sample after B0 correction of the contrast on a per voxel basis. […]

[9] = molecular target: T2, HSV1-TK (Human herpesvirus 1, UniProt P0DTH5); test: SPECT/CT imaging of HSV1-TK expression; type: in vivo, mice; conditions: 3 h after iv injection
T2 construct: V5; expressed in transfected cells; host or cells: 9L rat glioma cells transfected with pcDNA3.1-HSV1-tk, single G418-selected clone, implanted in NOD-SCID mouse brain
T2 sequence (P0DTH5 whole entry): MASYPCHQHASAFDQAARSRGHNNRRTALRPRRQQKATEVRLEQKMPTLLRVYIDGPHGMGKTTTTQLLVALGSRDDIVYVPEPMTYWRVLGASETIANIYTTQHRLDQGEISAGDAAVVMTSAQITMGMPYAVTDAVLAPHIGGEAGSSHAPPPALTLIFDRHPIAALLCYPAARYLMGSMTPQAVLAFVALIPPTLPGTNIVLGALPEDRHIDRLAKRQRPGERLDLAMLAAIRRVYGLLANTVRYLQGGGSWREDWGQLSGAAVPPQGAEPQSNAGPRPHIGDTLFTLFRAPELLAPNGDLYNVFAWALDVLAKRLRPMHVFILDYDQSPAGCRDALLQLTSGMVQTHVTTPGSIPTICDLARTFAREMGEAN
Experimental: An X-SPECT small-animal SPECT/CT system (Gamma Medica-Ideas) was used for image acquisition as previously described (Nimmagadda et al., J. Nucl. Med. 2009, 50, 1124). Briefly, seven days after cell implantation, the mice were injected iv with 50.3 MBq (1.36 mCi) of ^[125I]FIAU. SPECT data were acquired 3 h after radiotracer injection, and the obtained images were coregistered with the corresponding 512 slice CT images. Fused SPECT/CT transaxial sections of 1 mm thickness were generated using Amira 5.2.0 software (Visage Imaging Inc.) showing the SPECT signal obtained from the brain.

[10] = tested on: 9L^HSV1-tk cells; test: In vitro uptake assay; type: cell-based, rat; conditions: 1 and 3 h of incubation, 1 μCi
Experimental: One million cells (9L^wt and 9L^HSV1-tk in triplicates) were incubated in […] medium containing 1 μCi [^125I]FIAU at 37° C. for 1 and 3 h. Cells were pelleted by centrifugation and washed 3 times with cold PBS. Gamma counter was used to monitor the radioactivity of the incubating medium and the incubated cells. [^125I]FIAU uptake was determined as the relative radioactivity (in percentage) of the cells to that of the incubating [^125I]FIAU medium (without cells).

[11] = Exchange rate estimation by QUEST method; type: physicochemical; conditions: pH 7.4, 37° C.; cytosine 2 ppm, 5FC 2.4 ppm
Experimental: The exchange rate of exchangeable protons with a frequency of 2 ppm for cytosine and 2.4 ppm for 5FC at pH=7.4 was measured using the modified Quantifying Exchange using Saturation Time (QUEST) method (McMahon, M. T. et al. Magn Reson Med 2006, 55, 836). In brief, the CEST contrast for samples containing 20 mM cytosine or 5FC (40 mM of amine protons) at pH 7.4 was measured with saturation delays of 0.5, 1, 1.5, 2, 3, 5, and 9.5 sec, using a saturation field strength of 5.9 μT (300 Hz) and a repetition time (TR) set to 10 sec, using the RARE imaging sequence described above. The calculated MTRasym values were then fit using numerical solutions to the Bloch-McConnel equations with an exchange rate (kex). The water T1w and T2w were experimentally determined as approximately 4 sec and 1.6 sec, respectively, using the saturation recovery spin echo method and the CPMG multi-echo spin echo sequence, respectively. The fixed model parameters were water solute R1s=0.71 Hz and solute R2s=39 Hz.

[12] = molecular target: T3, Dm-dNK (Drosophila melanogaster, UniProt Q9XZT6); test: Fluorescence of cell lysates after incubation with pyrrolo-dC; type: cell-based, rat; conditions: 2 mM, 4 hours
T3 construct: expressed in transfected cells; host or cells: 9L rat glioma cells transfected with a pcDNA vector
T3 sequence (Q9XZT6 whole entry): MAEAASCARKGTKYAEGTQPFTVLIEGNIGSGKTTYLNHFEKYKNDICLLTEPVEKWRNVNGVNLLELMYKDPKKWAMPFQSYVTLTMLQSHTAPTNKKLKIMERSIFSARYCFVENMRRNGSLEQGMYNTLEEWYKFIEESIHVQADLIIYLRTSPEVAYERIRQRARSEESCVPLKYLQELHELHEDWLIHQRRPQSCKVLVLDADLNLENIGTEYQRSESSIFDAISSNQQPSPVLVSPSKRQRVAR
Experimental: (§6) Pyrrolo-dC was dissolved in 10 mM PBS at 20 mM concentration. CEST MRI experiments were performed on an 11.7T Bruker Avance system as previously described (G. Liu et al., Contrast Media Mol Imaging 5, 162 (2010)). A modified RARE (TR/TE=6000/9.4 ms) including a magnetization transfer module (B1=4.7 μT/4000 ms) was used to acquire CEST weighted images. The absolute water resonant frequency shift was measured using a modified WASSR method, with the same parameters as in CEST imaging except TR=1.5 sec and saturation pulse of B1=0.5 μT/250 ms. Mean CEST-spectra were derived from a ROI for each sample, after B0 correction for each voxel using MatLab. MTR asymmetry (MTRasym)=100×(S^−Δω−S^+Δω/S0 was computed at different offsets Δω. 9L rat glioma, engineered to express Drosophila melanogaster 2′-deoxynucleoside kinase (Dm-dNK; 9L^Dm-dNK) and control, non-expressing cells (9L^wt), 5×10^6 cells per group, were incubated for 4 hours at cell-culture medium containing 2 mM pyrrolo-dC. Then, the cells were washed with PBS, lysed and fluorescence was measured in triplicates using a plate reader (lex355 nm/lem460 nm).

[13] = CEST MRI of pyrrolo-dC in PBS; type: physicochemical; conditions: 20 mM in PBS, 5.8 ppm, 11.7T
Experimental: as §6

## Nc1nc(=O)[nH]cc1F [5FC, 5-fluorocytosine]
[1]; HEK293FT CD
  19F NMR conversion of 5FC to 5FU: 38.9%
[1]; HEK293FT WT
  19F NMR conversion of 5FC to 5FU: (−)
[2]
  number of viable cells after 5FC treatment: considerable decrease in the number of viable cells
[3]; 9L CD, 24 hours
  19F NMR conversion of 5FC to 5FU: (−)
[3]; 9L CD, 48 hours
  19F NMR conversion of 5FC to 5FU: 8.5%
[3]; 9L WT, 24 hours
  19F NMR conversion of 5FC to 5FU: (−)
[3]; 9L WT, 48 hours
  19F NMR conversion of 5FC to 5FU: (−)
[4]
  relative change in MTRasym: 12%
[5]
  number of viable cells after 5FC treatment: considerable decrease in the number of viable cells
[6]
  incubation time at which a significant difference in MTRasym between transduced and nontransduced cells was observed: 24 h
[7]; C17.2 CD, 24 hours
  19F NMR conversion of 5FC to 5FU: (−)
[7]; C17.2 CD, 48 hours
  19F NMR conversion of 5FC to 5FU: (−)
[7]; C17.2 WT, 24 hours
  19F NMR conversion of 5FC to 5FU: (−)
[7]; C17.2 WT, 48 hours
  19F NMR conversion of 5FC to 5FU: (−)
[8]
  conversion by recombinant CDase after 24 h: not the case

## O=c1[nH]c(=O)n([C@@H]2O[C@H](CO)[C@@H](O)[C@@H]2F)cc1[125I] [[^125I]FIAU]
[9]
  accumulation in tumors by SPECT/CT: only at the ^9LHSV1-tk tumor
[10]
  uptake in 9L^HSV1-tk cells compared to 9L^wt cells: significant accumulation

## Nc1cc[nH]c(=O)n1 [cytosine]
[11]
  exchange rate (kex) of the amine protons, QUEST: 8.1×10^2 Hz
[4]
  relative change in MTRasym: 50%
[6]
  incubation time at which a significant difference in MTRasym between transduced and nontransduced cells was observed: 4 h
[8]
  conversion by recombinant CDase after 24 h: nearly complete

## Cc1cc2cn([C@H]3C[C@H](O)[C@@H](CO)O3)c(=O)nc2[nH]1 [pyrrolo-dC, Pyrrolo-2′-deoxycytidine]
[12]
  fluorescence of lysate of incubated 9L^Dm-dNK cells: high fluorescence level
  fluorescence of lysate of incubated 9L^wt cells: no fluorescence was detected
[13]
  CEST contrast (MTRasym maps): high CEST contrast

From patent publication US20160082133A1, “CHEMICAL EXCHANGE SATURATION TRANSFER (CEST) BASED MRI USING REPORTER GENES AND SUBSTRATES AND METHODS THEREOF” (The Johns Hopkins University, priority 2013, published 2016)
